One block for each compound: values may come before it. Active and inactive are the calls of the source. The calls are words filed in the database; no cut-off is given here.
Key:
Acyl-CoA desaturase 1 [1] = target: T1, Acyl-CoA desaturase 1 (Rattus norvegicus, UniProt P07308); test: Inhibition of rat SCD by rat microsomal assay
T1 sequence (P07308 whole entry): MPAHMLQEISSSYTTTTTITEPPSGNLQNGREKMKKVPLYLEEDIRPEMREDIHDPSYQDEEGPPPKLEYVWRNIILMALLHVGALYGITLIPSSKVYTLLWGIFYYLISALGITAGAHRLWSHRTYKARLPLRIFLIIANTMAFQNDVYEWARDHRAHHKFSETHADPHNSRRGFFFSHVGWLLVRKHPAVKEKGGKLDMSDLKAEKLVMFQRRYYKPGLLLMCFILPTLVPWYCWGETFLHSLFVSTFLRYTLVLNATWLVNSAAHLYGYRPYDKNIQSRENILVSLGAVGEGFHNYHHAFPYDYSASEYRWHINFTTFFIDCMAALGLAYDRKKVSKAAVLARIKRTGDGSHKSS

Acyl-CoA desaturase 1 [2] = target: T1, Acyl-CoA desaturase 1; test: Inhibition of SCD in rat hepatocytes assessed as conversion of [14C]-stearic acid to [14C]-oleic acid preincubated for 15 mins measured after 1 hrs by scintillation counting; type: cell-based, Hepatocyte
[3] = Drug uptake in C57BL/6 mouse liver at 10 mg/kg, po after 6 hrs; type: ADME, organism-based, C57BL6; design: dose 10 mg/kg, route oral; conditions: read-out: Drug uptake
Mus musculus [4] = test: Inhibition of SCD in C57BL/6 mouse liver assessed as conversion of [1-(14)C]-stearic acid to [1-(14)C]-oleic acid at 30 mg/kg, po after 3 hrs; type: functional
[5] = Drug uptake in C57BL/6 mouse liver at 30 mg/kg, po after 3 hrs; type: ADME, organism-based, C57BL6; design: dose 30 mg/kg, route oral; conditions: read-out: Drug uptake
Stearoyl-CoA desaturase = target: T2, Stearoyl-CoA desaturase (Homo sapiens, UniProt O00767); test: Inhibition of SCD in human HepG2 cells assessed as conversion of [1-(14)C]-stearic acid to (14)C-oleic acid; type: cell-based
T2 sequence (O00767 whole entry): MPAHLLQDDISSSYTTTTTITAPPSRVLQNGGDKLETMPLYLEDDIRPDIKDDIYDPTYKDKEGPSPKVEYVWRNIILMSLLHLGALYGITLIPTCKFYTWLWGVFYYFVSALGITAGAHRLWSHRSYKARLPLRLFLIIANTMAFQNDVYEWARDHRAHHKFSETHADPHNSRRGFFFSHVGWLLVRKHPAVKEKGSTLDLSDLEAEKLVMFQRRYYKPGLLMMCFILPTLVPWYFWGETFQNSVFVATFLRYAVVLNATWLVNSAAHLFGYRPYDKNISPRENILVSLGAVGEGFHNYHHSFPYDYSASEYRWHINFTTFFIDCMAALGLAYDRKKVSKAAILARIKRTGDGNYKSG

[6] = Drug uptake in C57BL/6 mouse skin at 10 mg/kg, po after 6 hrs; type: ADME, organism-based, C57BL6, Zone of skin; design: dose 10 mg/kg, route oral; conditions: read-out: Drug uptake
Nucleic Acid = test: Ratio of drug uptake in liver to skin of C57BL/6 mouse at 10 mg/kg, po after 6 hrs; type: ADME, organism-based, C57BL6; design: dose 10 mg/kg, route oral; conditions: in vivo
Mus musculus [7] = test: Ratio of drug uptake in liver to harderian glands of C57BL/6 mouse at 10 mg/kg, po after 6 hrs; conditions: in vivo
Mus musculus [8] = test: Inhibition of SCD in C57BL/6 mouse liver assessed as conversion of [1-(14)C]-stearic acid to [1-(14)C]-oleic acid at 10 mg/kg, po after 3 hrs; type: functional; conditions: C57BL/6, Liver
[9] = Drug uptake in C57BL/6 mouse plasma at 10 mg/kg, po after 6 hrs; type: ADME, organism-based, C57BL6; design: dose 10 mg/kg, route oral; conditions: read-out: Drug uptake
[10] = Drug uptake in C57BL/6 mouse harderian glands at 10 mg/kg, po after 6 hrs; type: ADME, organism-based, C57BL6, Harderian gland; design: dose 10 mg/kg, route oral; conditions: read-out: Drug uptake
[11] = Inhibition of mouse SCD

SMILES: NC(=O)c1nnn(Cc2cc(Cl)c(Cl)c(Cl)c2)c1N
IC50 (Acyl-CoA desaturase 1 [1]): 12 nM

SMILES: O=C(O)Cn1nnc(-c2ccnc(-c3cn(Cc4cc(Cl)c(Cl)c(Cl)c4)nn3)c2)n1
IC50 (Acyl-CoA desaturase 1 [1]): 1310 nM

SMILES: O=C(O)Cn1nnc(-c2cnc(-c3cn(Cc4cc(Cl)c(Cl)c(Cl)c4)nn3)nc2)n1
IC50 (Acyl-CoA desaturase 1 [1]): 343 nM

SMILES: O=C(O)Cn1nnc(-c2cnc(-c3cn(Cc4cc(Cl)c(Cl)c(Cl)c4)nn3)s2)n1
IC50 (Acyl-CoA desaturase 1 [2]): 975 nM
concentration at 6 h [3]: 330 nM
inhibition (Mus musculus [4]): inactive
concentration at 3 h [5]: 4100 nM
IC50 (Stearoyl-CoA desaturase): > 100000 nM
IC50 (Acyl-CoA desaturase 1 [1]): 49 nM

SMILES: NC(=O)c1cn(Cc2cc(Br)c(Br)c(Br)c2)nn1
IC50 (Acyl-CoA desaturase 1 [2]): 10100 nM
concentration at 6 h [3]: 2690 nM
concentration at 6 h [6]: 740 nM
Ratio (Nucleic Acid): 3.6
concentration at 3 h [5]: 14000 nM
IC50 (Stearoyl-CoA desaturase): 760 nM
Ratio (Mus musculus [7]): 0.4
IC50 (Acyl-CoA desaturase 1 [1]): 19 nM
inhibition in vivo at 10 mg/kg (Mus musculus [8]): 46%
concentration at 6 h [9]: 740 nM
concentration at 6 h [10]: 6630 nM

SMILES: O=C(O)Cn1nnc(-c2ccc(-c3cn(Cc4cc(Cl)c(Cl)c(Cl)c4)nn3)nn2)n1
IC50 (Acyl-CoA desaturase 1 [1]): 1810 nM

SMILES: O=C(O)Cn1nnc(-c2cc(-c3cn(Cc4cc(Cl)c(Cl)c(Cl)c4)nn3)ccn2)n1
IC50 (Acyl-CoA desaturase 1 [1]): 719 nM

SMILES: NC(=O)c1nnn(Cc2cc(Br)c(Br)c(Br)c2)c1N
IC50 (Acyl-CoA desaturase 1 [1]): 6 nM

Further lines, with some results ahead:

IC50 (Acyl-CoA desaturase 1 [1]): 552 nM
SMILES: O=C(O)CCc1nc(-c2cn(Cc3cc(Br)c(Br)c(Br)c3)nn2)no1

IC50 (Acyl-CoA desaturase 1 [1]): 8320 nM
SMILES: O=C(O)CCCCCc1nc(-c2cn(Cc3cc(Br)c(Br)c(Br)c3)nn2)no1

IC50 (Acyl-CoA desaturase 1 [1]): 911 nM
SMILES: O=C(O)Cn1nnc(-c2cn(CCCc3cc(Br)c(Br)c(Br)c3)nn2)n1

IC50 (Acyl-CoA desaturase 1 [2]): 212 nM
concentration at 6 h [3]: 1660 nM
IC50 [11]: 10 nM
concentration at 3 h [5]: 8400 nM
IC50 (Stearoyl-CoA desaturase): 37700 nM
Ratio (Mus musculus [7]): 100
IC50 (Acyl-CoA desaturase 1 [1]): 21 nM
SMILES: O=C(O)Cn1nnc(-c2cc(-c3cn(Cc4cc(Br)c(Br)c(Br)c4)nn3)no2)n1
inhibition in vivo at 30 mg/kg (Mus musculus [4]; C57BL/6, Liver): 30%

IC50 (Acyl-CoA desaturase 1 [1]): 216 nM
SMILES: O=C(O)CCCc1nc(-c2cn(Cc3cc(Br)c(Br)c(Br)c3)nn2)no1

IC50 (Acyl-CoA desaturase 1 [1]): 5250 nM
SMILES: O=C(O)CCCCc1nc(-c2cn(Cc3cc(Br)c(Br)c(Br)c3)nn2)no1

IC50 (Acyl-CoA desaturase 1 [1]): > 20000 nM
SMILES: O=C(O)Cn1nnc(-c2cn(Cc3cc(Br)c(Br)c(Br)c3)nn2)n1

IC50 (Acyl-CoA desaturase 1 [1]): 19900 nM
SMILES: O=C(O)Cn1nnc(-c2cn(CCc3cc(Br)c(Br)c(Br)c3)nn2)n1

IC50 (Acyl-CoA desaturase 1 [2]): 694 nM
concentration at 6 h [3]: 470 nM
concentration at 3 h [5]: 900 nM
IC50 (Stearoyl-CoA desaturase): 6310 nM
IC50 (Acyl-CoA desaturase 1 [1]): 56 nM
SMILES: O=C(O)Cn1nnc(-c2cncc(-c3cn(Cc4cc(Br)c(Br)c(Br)c4)nn3)c2)n1
inhibition (Mus musculus [4]): inactive

IC50 (Acyl-CoA desaturase 1 [1]): 1250 nM
SMILES: O=C(O)Cn1nnc(-c2cnc(-c3cn(Cc4cc(Br)c(Br)c(Br)c4)nn3)cn2)n1
